How the values were obtained:
[1] = test system: Hela (human cervical cancer cells); experiment: MTT cancer cell growth inhibition; type: cell-based; conditions: 72 h
Description: (§1) 1. Experimental principles: the inhibition of cancer cell growth with compounds is detected by an MTT method. The principle of the MTT method is as follows: yellow thiazolyl blue may penetrate through cell membranes and enter into cells, succinate dehydrogenase in living cell mitochondria may reduce exogenous MTT into water-insoluble ianthinus acicular Formazan crystals which deposit in the cells, the crystals can be dissolved with dimethyl sulfoxide (DMSO), the optical density of the crystals is detected with an enzyme-linked immunometric meter at the wavelength of 490 nm/570 nm, and the number of cells can be indirectly reflected.
(§2) 2. Experimental materials: the used cancer cell lines are Hela (human cervical cancer cells), MCF-7 (human breast cancer cells), BGC-823 (human gastric cancer cells), A549 (human lung cancer cells), HT1080 (human fibrosarcoma cells), A431 (human epidermal squamous cell carcinoma cells), HUVEC (human umbilical vein endothelial cells), DU145 (human prostate cancer cells), K562 (human leukemia cells), U937 (human leukemia cells), Pac-1 (human pancreatic cancer cells), and MOLT-4 (human acute lymphoblastic leukemia cells), which are cultured with a DMEM+10% FBS culture medium or a 1640+10% FBS culture medium, respectively.
(§3) Experimental groups: 190 μl cell suspension+10 μl pharmaceuticals in different concentrations (the final concentration is 10^−5-10^−10M)
(§4) Negative control group: 190 μl cell suspension+10 μl 2% DMSO (the final concentration of DMSO is 0.1%)
(§5) a) Cells are inoculated on a 96-pore plate, with 1500 cells and 190 μl for each hole, and cultured overnight in a 5% CO2 incubator at 37.
(§6) b) 10 μl of different pharmaceuticals is added into each hole the next day, with the final concentration of the pharmaceuticals of 10^−5-10^−10M and three parallel holes, and incubated for 72 h in a 5% CO2 incubator at 37.
(§7) c) 20 μl of 5 mg/mL MTT is added into each hole, and incubated for 4 h in a 5% CO2 incubator at 37.
(§8) d) Supernatant is removed. 100 μl of DMSO is added into each hole and vibrated.
(§9) e) The reading is 570 nm. The cell survival rate is calculated.

[2] = test system: MOLT-4 (human acute lymphoblastic leukemia cells); experiment: MTT cancer cell growth inhibition; type: cell-based; conditions: 72 h
Description: as §1, §2, §3, §4, §5, §6, §7, §8, §9

[3] = test system: DU145 (human prostate cancer cells); experiment: MTT cancer cell growth inhibition; type: cell-based; conditions: DU-145, 72 h
Description: as §1, §2, §3, §4, §5, §6, §7, §8, §9

[4] = test system: U937 (human leukemia cells); experiment: MTT cancer cell growth inhibition; type: cell-based; conditions: U-937, 72 h
Description: as §1, §2, §3, §4, §5, §6, §7, §8, §9

[5] = test system: A549 (human lung cancer cells); experiment: MTT cancer cell growth inhibition; type: cell-based; conditions: 72 h
Description: as §1, §2, §3, §4, §5, §6, §7, §8, §9

[6] = test system: MCF-7 (human breast cancer cells); experiment: MTT cancer cell growth inhibition; type: cell-based; conditions: MCF7, 72 h
Description: as §1, §2, §3, §4, §5, §6, §7, §8, §9

[7] = test system: HT1080 (human fibrosarcoma cells); experiment: MTT cancer cell growth inhibition; type: cell-based; conditions: HT-1080, 72 h
Description: as §1, §2, §3, §4, §5, §6, §7, §8, §9

[8] = test system: BGC-823 (human gastric cancer cells); experiment: MTT cancer cell growth inhibition; type: cell-based; conditions: 72 h, read-out: GI50 BGC823
Description: as §1, §2, §3, §4, §5, §6, §7, §8, §9

PANC-1 = experiment: MTT cancer cell growth inhibition; type: cell-based; conditions: Homo sapiens, 72 h
Description: as §1, §2, §3, §4, §5, §6, §7, §8, §9

Incap = experiment: MTT cancer cell growth inhibition; type: cell-based; conditions: 72 h
HDAC7 = target: T1, HDAC7 (Homo sapiens, UniProt Q8WUI4); experiment: Measurement of biochemical activities of HDAC (fluorescently-labeled acetylated lysine substrate)
T1 sequence (Q8WUI4 1-952): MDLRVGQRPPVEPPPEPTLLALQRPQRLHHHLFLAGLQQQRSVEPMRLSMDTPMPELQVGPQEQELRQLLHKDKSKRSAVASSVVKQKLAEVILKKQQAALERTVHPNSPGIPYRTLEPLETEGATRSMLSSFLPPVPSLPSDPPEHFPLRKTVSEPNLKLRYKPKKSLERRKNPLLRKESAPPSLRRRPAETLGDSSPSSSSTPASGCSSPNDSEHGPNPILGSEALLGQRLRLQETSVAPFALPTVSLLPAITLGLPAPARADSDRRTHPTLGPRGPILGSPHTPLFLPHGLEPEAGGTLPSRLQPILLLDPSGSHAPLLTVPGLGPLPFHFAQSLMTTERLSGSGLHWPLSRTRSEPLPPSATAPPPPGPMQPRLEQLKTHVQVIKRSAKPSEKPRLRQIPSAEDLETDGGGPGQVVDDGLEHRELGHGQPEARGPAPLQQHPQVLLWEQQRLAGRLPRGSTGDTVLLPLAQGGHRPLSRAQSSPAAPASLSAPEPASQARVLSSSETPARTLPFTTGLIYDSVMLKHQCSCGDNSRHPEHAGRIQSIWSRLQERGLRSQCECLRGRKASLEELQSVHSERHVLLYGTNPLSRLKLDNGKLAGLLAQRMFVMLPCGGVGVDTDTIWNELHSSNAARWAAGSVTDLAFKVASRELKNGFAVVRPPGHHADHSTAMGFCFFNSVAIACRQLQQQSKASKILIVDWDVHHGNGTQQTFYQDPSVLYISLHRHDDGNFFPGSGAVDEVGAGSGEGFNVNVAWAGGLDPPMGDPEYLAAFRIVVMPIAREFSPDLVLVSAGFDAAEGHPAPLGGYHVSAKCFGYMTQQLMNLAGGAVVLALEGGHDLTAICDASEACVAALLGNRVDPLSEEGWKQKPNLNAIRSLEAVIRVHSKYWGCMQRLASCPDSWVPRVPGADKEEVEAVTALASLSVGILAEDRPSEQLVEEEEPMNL
Protocol: (§10) 1. Measurement principles: the measurement of biochemical activities of compounds is determined according to the degree of the compounds inhibiting the deacylation of HDAC enzyme. After the fluorescently-labeled substrate containing acetylated lysine side chain reacts with the HDAC enzyme, the fluorogenic substrate is deacetylated. After the deacetylated fluorescently-labeled substrate is cracked by the enzyme, a fluorescent substance is released. The fluorescent substance generates emitting light of 460 nm under the excitation of light of 360 nm.
(§11) 2. Detailed steps: the substrate of HDAC is diluted to […] (the reaction concentration is […]) with a reaction buffer. HDAC enzyme is diluted to a proper concentration. The compounds to be detected in different concentrations are added. The mixture reacts for 30 min at 37. Then the developer with the same volume and twice concentration of the substrate is added into the mixture. The mixture is incubated for 15 min at room temperature. Finally, the reading is measured with a micro plate scanner. The excitation light is 360 nm, the emitting light is 460 nm, and the data is processed with Prime 4 software.

HDAC1 = HDAC1 (Homo sapiens, UniProt Q13547); experiment: as above; conditions: read-out: IC50 HDAC1
Chain of HDAC1 (Q13547 whole entry, species assumed): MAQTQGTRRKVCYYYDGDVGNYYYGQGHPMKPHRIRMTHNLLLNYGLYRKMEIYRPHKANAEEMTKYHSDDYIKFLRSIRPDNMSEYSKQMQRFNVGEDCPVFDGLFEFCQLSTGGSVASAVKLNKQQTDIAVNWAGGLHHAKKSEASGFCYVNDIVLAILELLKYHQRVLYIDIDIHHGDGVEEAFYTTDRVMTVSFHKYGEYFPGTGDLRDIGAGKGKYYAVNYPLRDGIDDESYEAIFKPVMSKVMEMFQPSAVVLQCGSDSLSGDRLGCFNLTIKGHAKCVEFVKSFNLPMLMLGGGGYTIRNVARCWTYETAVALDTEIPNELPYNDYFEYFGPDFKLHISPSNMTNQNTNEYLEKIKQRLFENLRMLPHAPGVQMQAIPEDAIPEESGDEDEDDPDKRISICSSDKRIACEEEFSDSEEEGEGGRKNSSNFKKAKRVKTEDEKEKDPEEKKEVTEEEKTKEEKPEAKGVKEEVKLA
Protocol: as §10, §11

Compound	GI50 [1]	GI50 [2]	GI50 [3]	GI50 [4]	GI50 [5]	GI50 [6]	GI50 [7]	GI50 [8]	GI50 (PANC-1)	GI50 (Incap)	IC50 HDAC7 (HDAC7)	IC50 (HDAC1)
C/C=C1\NC(=O)C2=NC(=NC2)CNC(=O)C[C@@H](/C=C/CCSC(=O)CCCCCCC)OC(=O)[C@H](C(C)C)NC1=O [Compound 2-5]	12 µM	1.03 µM	5.46 µM	21 µM	2.13 µM	26 µM	1.02 µM	20.6 µM	26.4 µM	0.56 µM	no activity	< 10 µM
CCCCCCCC(=O)SCC/C=C/[C@@H]1CC(=O)NCc2nc(cs2)C(=O)N[C@H](CC)C(=O)N[C@@H](C(C)C)C(=O)O1 [Compound 3-2]	0.6 µM	1.06 µM	1.06 µM	5.26 µM	0.36 µM	0.1 µM	1.35 µM	1.02 µM	1.23 µM	1.42 µM	no activity	< 10 µM
C/C=C1\NC(=O)c2csc(n2)[C@H](Cc2ccc(O)cc2)NC(=O)C[C@@H](/C=C/CCSC(=O)CCCCCCC)OC(=O)[C@H](C(C)C)NC1=O [Compound 4-4]	1 µM	0.05 µM	2.1 µM	10.2 µM	0.01 µM	0.006 µM	0.65 µM	1.02 µM	3.01 µM	4.26 µM	no activity	< 10 µM
C/C=C1\NC(=O)c2csc(n2)CNC(=O)C[C@@H](/C=C/CCSC(=O)CCN)OC(=O)[C@H](C(C)C)NC1=O [Compound 6-6]	0.86 µM	56.4 µM	0.3 µM	1.29 µM	0.001 µM	0.952 µM	4.16 µM	0.065 µM	1.65 µM	0.65 µM	no activity	< 1 µM
C/C=C1\NC(=O)c2cccc(c2)CNC(=O)C[C@@H](/C=C/CCSC(=O)CCCCCCC)OC(=O)[C@H](C(C)C)NC1=O [Compound 2-6]	0.5 µM	64.5 µM	0.56 µM	12.6 µM	4.2 µM	0.65 µM	12 µM	56.2 µM	45 µM	11.7 µM	no activity	< 10 µM

Stronger by GI50 [1], values ahead:

GI50 [1]	GI50 [2]	GI50 [3]	GI50 [4]	GI50 [5]	GI50 [6]	GI50 [7]	GI50 [8]	GI50 (PANC-1)	GI50 (Incap)	IC50 HDAC7 (HDAC7)	IC50 (HDAC1)	Compound
0.4 µM	0.009 µM	0.008 µM	0.007 µM	0.09 µM	0.09 µM	0.05 µM	0.1 µM	0.3 µM	0.05 µM	no activity	< 0.1 µM	C/C=C1\NC(=O)c2csc(n2)CNC(=O)C[C@@H](/C=C/CCSC(=O)CCCCCCC)OC(=O)CNC1=O [Compound 1-1]
0.1 µM	2.1 µM	0.006 µM	0.009 µM	0.09 µM	0.09 µM	0.08 µM	0.1 µM	0.8 µM	0.65 µM	no activity	< 10 µM	C/C=C1\NC(=O)c2ccnc(c2)CNC(=O)C[C@@H](/C=C/CCSC(=O)CCCCCCC)OC(=O)[C@H](C(C)C)NC1=O [Compound 2-7]
0.1 µM	0.01 µM	0.006 µM	0.009 µM	5.09 µM	0.09 µM	0.08 µM	0.16 µM	0.8 µM	0.03 µM	no activity	< 0.1 µM	C/C=C1\NC(=O)c2csc(n2)CNC(=O)C[C@@H](/C=C/CCSC(=O)CCCCCCC)OC(=O)[C@H](CC(C)C)NC1=O [Compound 1-11]
